The structures appear in SMILES notation. A value given as a limit tells only on which side of the number the result lay.

Common to all, as to format: cell-based
In assay [1] the test system is TC32 Ewing sarcoma cells, expressing EWS-FLI1. As to the kind of experiment: Growth inhibition assay, TC32 cells. To be noted: for EC50: Table 1D, read-out: TC-32 Mean EC50; for PC:TC32 (cellular selectivity): ratio of GI50 PC3 to TC32; for TC32 vs. PC3 / IC50: Table 1C; for TC32 vs. PC3: cellular selectivity; for IC50: read-out: IC50 TC-32. Here is the method:
(§1) Growth inhibition assay to assess cytotoxicity in ETS vs non-ETS expressing cells. Cells were seeded in clear 96-well plates (VWR, Radnor, PA). Seeding densities were optimized for each cell line to support 5 days of linear growth. Following a 24 hours attachment period, cells in duplicate wells were treated with half-log increments of respective compounds (0 nM and 0.3 nM-10 μM). Working stocks were prepared from an initial 10 mM drug stock diluted in either 100% ethanol or dimethyl sulfoxide (DMSO). All wells contained a final concentration of 0.1% (v/v) respective organic solvent. Immediately following treatment, cell viability was measured for vehicle control (Day 0) wells. Cell viability was measured in the remaining wells after 72 hours of incubation with compound or vehicle control (Day 3).
(§2) Percent viability, relative to the initial cell seeding concentration, was calculated by ((TreatmentDay3−Vehicle ControlDay0)/(Vehicle ControlDay3−Vehicle ControlDay0))×100. Percent cell viability was plotted as a function of compound concentration (Log [M]) and the data were fit using a 3-parameter non-linear model with fixed Hill slope constant and 4-parameter non-linear model with variable Hill slope constant. The model with the best curve fit was used to estimate the GI50 in GraphPad Prism 7.0 software (GraphPad Software, La Jolla, CA). The 3-parameter equation used was Y=Bottom+(Top−Bottom)/(1+10[…]((X−Log[IC50]))). The 4-parameter equation used was Y=Bottom+(Top−Bottom)/(1+10[…]((Log[IC50]−X)*Hillslope)). Top and Bottom are plateaus in the units of the Y-axis (response). IC50 is the response (Y-axis) halfway between Top and Bottom plateaus.
(§3) All compounds were tested at least once in multi-well replicates and each experiment included one a control compound (i.e., MTM) to ensure the stable response of the cell lines. The selectivity index was estimated by determining the ratio of GI50 estimates between ETS fusion negative and ETS fusion positive cell lines.

For assay [2], the system named is PC3 Prostate Cancer Cells. As to the kind of experiment: Growth inhibition assay, PC3 cells. As to conditions: for EC50: Table 1D; for IC50: Table 1C. As to the method: as §1, §2, §3
Assay [3] has as its system G-401 (ATTC Cat. No., CRL-1441); Rhabdoid tumor of the kidney. Description: Growth inhibition assay, G-401 cells. To be noted: for EC50: Table 1D. Here is the method: as §1, with “3). For viability measurements, 0.1 mM resazurin (Sigma, St. Louis, MO) was added to wells and following 3 hours of incubation at 37° C., fluorescence readings ([…]) were recorded using a SpectraMax M5 plate reader (Molecular Devices, Sunnyvale, CA).” for “3).”
as §2
(§4) GI50 values were determined by pooling all available experiments and reported with 95% confidence interval, calculated from GraphPad Prism 7.0 software curve fit. All compounds were tested at least once in multi-well replicates and each experiment included one a control compound (i.e., MTM) to ensure the stable response of the cell lines. The selectivity index was estimated by determining the ratio of GI50 estimates between ETS fusion negative and ETS fusion positive cell lines.

The subject of assay [4] is RH30 muscle rhabdomyosarcoma. Description: Growth inhibition assay, RH30 cells. To be noted: Table 1D. Here is the method:
as §1, with “3). For viability measurements, 0.1 mM resazurin (Sigma, St. Louis, MO) was added to wells and following 3 hours of incubation at 37° C., fluorescence readings ([…]) were recorded using a SpectraMax M5 plate reader (Molecular Devices, Sunnyvale, CA).” for “3).”
as §2, §4

Assay [5] concerns A-204 (ATTC Cat. No., HTB-82); Rhabdomyosarcoma (embryonal). As to the kind of experiment: Growth inhibition assay, A-204 cells. As to conditions: for EC50: Table 1D. Here is the method:
as §1, with “3). For viability measurements, 0.1 mM resazurin (Sigma, St. Louis, MO) was added to wells and following 3 hours of incubation at 37° C., fluorescence readings ([…]) were recorded using a SpectraMax M5 plate reader (Molecular Devices, Sunnyvale, CA).” for “3).”
as §2, §4

As for `CO[C@H](/C(=N/OCC(=O)N[C@@H](Cc1c[nH]c2ccccc12)C(=O)N(C)C)[C@@H](O)[C@@H](C)O)[C@@H]1Cc2cc3cc(O[C@H]4C[C@@H](O[C@H]5C[C@@H](O)[C@H](O)C(C)O5)[C@H](O)C(C)O4)c(C)c(O)c3c(O)c2C(=O)[C@H]1O[C@H]1C[C@@H](O[C@H]2C[C@@H](O[C@H]3C[C@](C)(O)[C@H](O)C(C)O3)[C@H](O)C(C)O2)[C@H](O)C(C)O1` (stereo partly shown) [MTM (44)], in assay [1], the EC50 came to 84.5 nM and the “PC:TC32 (cellular selectivity)” value is reported as 35. Besides, the EC50 in assay [2] was above 1470 nM.

On to `COC(C(=NOCC(=O)NC(Cc1cn(C)c2ccccc12)C(=O)N1CCOCC1)C(O)C(C)O)C1Cc2cc3cc(OC4CC(OC5CC(O)C(O)C(C)O5)C(O)C(C)O4)c(C)c(O)c3c(O)c2C(=O)C1OC1CC(OC2CC(OC3CC(C)(O)C(O)C(C)O3)C(O)C(C)O2)C(O)C(C)O1` (stereo not shown) [AK-B11], for which, in assay [1], the “TC32 vs. PC3” value is given as above 8×, the half-maximal inhibitory concentration (IC50) lay within 147 to 300 nM and the EC50 is 49.8 nM. In addition, in assay [2], the half-inhibitory concentration (IC50) is 1600 to 2500 nM and the half-maximal effective concentration (EC50) was found to be 666 nM.

As for `CO[C@H](/C(=N/OCC(=O)N[C@@H](Cc1c[nH]c2ccccc12)C(=O)N(C)OC)[C@@H](O)[C@@H](C)O)[C@@H]1Cc2cc3cc(O[C@H]4C[C@@H](O[C@H]5C[C@@H](O)[C@H](O)C(C)O5)[C@H](O)C(C)O4)c(C)c(O)c3c(O)c2C(=O)[C@H]1O[C@H]1C[C@@H](O[C@H]2C[C@@H](O[C@H]3C[C@](C)(O)[C@H](O)C(C)O3)[C@H](O)C(C)O2)[C@H](O)C(C)O1` (stereo partly shown) [MTM (54)], in assay [1], the EC50 was 67 nM and the “PC:TC32 (cellular selectivity)” value is on record as 1.7. The response in assay [2] was half-maximal at 437 nM (EC50).

As for `CO[C@H](/C(=N/OCC(=O)N[C@H](CO)Cc1c[nH]c2ccccc12)[C@@H](O)[C@@H](C)O)[C@@H]1Cc2cc3cc(O[C@H]4C[C@@H](O[C@H]5C[C@@H](O)[C@H](O)C(C)O5)[C@H](O)C(C)O4)c(C)c(O)c3c(O)c2C(=O)[C@H]1O[C@H]1C[C@@H](O[C@H]2C[C@@H](O[C@H]3C[C@](C)(O)[C@H](O)C(C)O3)[C@H](O)C(C)O2)[C@H](O)C(C)O1` (stereo partly shown) [MTM (59)], in assay [1], the EC50 worked out at 84.7 nM and the “PC:TC32 (cellular selectivity)” value came out at 4.8. The compound also came in with an EC50 in assay [2] of 313 nM.

As for `CCN(CC)C(=O)C(Cc1c[nH]c2ccccc12)NC(=O)CON=C(C(O)C(C)O)C(OC)C1Cc2cc3cc(OC4CC(OC5CC(O)C(O)C(C)O5)C(O)C(C)O4)c(C)c(O)c3c(O)c2C(=O)C1OC1CC(OC2CC(OC3CC(C)(O)C(O)C(C)O3)C(O)C(C)O2)C(O)C(C)O1` (stereo not shown) [MTM103], the concentration for a half-maximal effect (EC50) came out at 25.5 nM in assay [3]; 29.4 nM in assay [4]; 23.5 nM in assay [1]; 91.3 nM in assay [2]; 194 nM in assay [5].

`CO[C@H](/C(=N/OCC(=O)N[C@@H](Cc1c[nH]c2ccccc12)C(N)=O)[C@@H](O)[C@@H](C)O)[C@@H]1Cc2cc3cc(O[C@H]4C[C@@H](O[C@H]5C[C@@H](O)[C@H](O)C(C)O5)[C@H](O)C(C)O4)c(C)c(O)c3c(O)c2C(=O)[C@H]1O[C@H]1C[C@@H](O[C@H]2C[C@@H](O[C@H]3C[C@](C)(O)[C@H](O)C(C)O3)[C@H](O)C(C)O2)[C@H](O)C(C)O1` (stereo partly shown) [MTM (42)]: the EC50 was 304 nM in assay [1] and 3550 nM in assay [2]. In assay [1], the “PC:TC32 (cellular selectivity)” value was found to be 8.5.

As to `COC(C(=NOCC(=O)N(C)C(Cc1cn(C)c2ccccc12)C(=O)N1CCOCC1)C(O)C(C)O)C1Cc2cc3cc(OC4CC(OC5CC(O)C(O)C(C)O5)C(O)C(C)O4)c(C)c(O)c3c(O)c2C(=O)C1OC1CC(OC2CC(OC3CC(C)(O)C(O)C(C)O3)C(O)C(C)O2)C(O)C(C)O1` (stereo not shown) [AK-B6], in assay [1], the “TC32 vs. PC3” value was above 3×, the IC50 lay in the range of 32 to 120 nM and the concentration giving a half-maximal response (EC50) was determined as 10.7 nM. In assay [2], this compound came in with an IC50 of 150 to 370 nM and a half-maximal effective concentration (EC50) of 52.3 nM.

On to `CCOC(=O)[C@H](Cc1c[nH]c2ccccc12)NC(=O)CO/N=C(\[C@@H](O)[C@@H](C)O)[C@@H](OC)[C@@H]1Cc2cc3cc(O[C@H]4C[C@@H](O[C@H]5C[C@@H](O)[C@H](O)C(C)O5)[C@H](O)C(C)O4)c(C)c(O)c3c(O)c2C(=O)[C@H]1O[C@H]1C[C@@H](O[C@H]2C[C@@H](O[C@H]3C[C@](C)(O)[C@H](O)C(C)O3)[C@H](O)C(C)O2)[C@H](O)C(C)O1` (stereo partly shown) [MTM (41)], for which the EC50 in assay [1] was 266 nM; in assay [2] it was 4060 nM. In addition, the “PC:TC32 (cellular selectivity)” value in assay [1] was 13.5.

With `COC(C(=NOCC(=O)NC(Cc1c[nH]c2ccccc12)C(=O)N1CCOCC1)C(O)C(C)O)C1Cc2cc3cc(OC4CC(OC5CC(O)C(O)C(C)O5)C(O)C(C)O4)c(C)c(O)c3c(O)c2C(=O)C1OC1CC(OC2CC(OC3CC(C)(O)C(O)C(C)O3)C(O)C(C)O2)C(O)C(C)O1` (stereo not shown) [MTM102], the half-inhibitory concentration (IC50) in assay [3] (Table 1C) came out at 514 nM; in assay [1] it was 156 nM; in assay [2] it was 2700 nM; in assay [5] (Table 1C) it was 2300 nM. Also, the EC50 in assay [3] amounted to 591 nM; in assay [1], 162 nM; in assay [2] it was 1650 nM; in assay [5] it was 2740 nM. Besides, in assay [1], the “TC32 vs. PC3” value came to 17×.

`COC(=O)C(Cc1c[nH]c2ccccc12)NC(=O)C(C)NC(=O)CON=C(C(O)C(C)O)C(OC)C1Cc2cc3cc(OC4CC(OC5CC(O)C(O)C(C)O5)C(O)C(C)O4)c(C)c(O)c3c(O)c2C(=O)C1OC1CC(OC2CC(OC3CC(C)(O)C(O)C(C)O3)C(O)C(C)O2)C(O)C(C)O1` (stereo not shown) [MTM (34)]: in assay [1], the “PC:TC32 (cellular selectivity)” value turned out to be 4.28.

Take `COC(C(=NOCC(=O)NCCc1c[nH]c2ccccc12)C(O)C(C)O)C1Cc2cc3cc(OC4CC(OC5CC(O)C(O)C(C)O5)C(O)C(C)O4)c(C)c(O)c3c(O)c2C(=O)C1OC1CC(OC2CC(OC3CC(C)(O)C(O)C(C)O3)C(O)C(C)O2)C(O)C(C)O1` (stereo not shown) [MTM (18)]: the “PC:TC32 (cellular selectivity)” value in assay [1] amounted to 6.44.

Regarding `COC(C(=NOCCCc1c[nH]c2ccccc12)C(O)C(C)O)C1Cc2cc3cc(OC4CC(OC5CC(O)C(O)C(C)O5)C(O)C(C)O4)c(C)c(O)c3c(O)c2C(=O)C1OC1CC(OC2CC(OC3CC(C)(O)C(O)C(C)O3)C(O)C(C)O2)C(O)C(C)O1` (stereo not shown) [MTM (21)], the “PC:TC32 (cellular selectivity)” value in assay [1] was 1.38.

As for `COC(=O)C(Cc1c[nH]c2ccccc12)NC(=O)C(Cc1c[nH]c2ccccc12)NC(=O)CON=C(C(O)C(C)O)C(OC)C1Cc2cc3cc(OC4CC(OC5CC(O)C(O)C(C)O5)C(O)C(C)O4)c(C)c(O)c3c(O)c2C(=O)C1OC1CC(OC2CC(OC3CC(C)(O)C(O)C(C)O3)C(O)C(C)O2)C(O)C(C)O1` (stereo not shown) [MTM (24)], the “PC:TC32 (cellular selectivity)” value in assay [1] is listed as 6.9.

Take `COC(C(=NNC(=O)CCCCCN1C(=O)C=CC1=O)C(O)C(C)O)C1Cc2cc3cc(OC4CC(OC5CC(O)C(O)C(C)O5)C(O)C(C)O4)c(C)c(O)c3c(O)c2C(=O)C1OC1CC(OC2CC(OC3CC(C)(O)C(O)C(C)O3)C(O)C(C)O2)C(O)C(C)O1` (stereo not shown) [MTM (33)]: the “PC:TC32 (cellular selectivity)” value in assay [1] worked out at 3.9.

As for `COC(C(=NOCC(=O)Nc1cncnc1)C(O)C(C)O)C1Cc2cc3cc(OC4CC(OC5CC(O)C(O)C(C)O5)C(O)C(C)O4)c(C)c(O)c3c(O)c2C(=O)C1OC1CC(OC2CC(OC3CC(C)(O)C(O)C(C)O3)C(O)C(C)O2)C(O)C(C)O1` (stereo not shown) [MTM (50)], in assay [1], the “PC:TC32 (cellular selectivity)” value came out at 2.7.

In the case of `COC(C(=NOCC(=O)NC(Cc1c[nH]c2ccccc12)C(=O)O)C(O)C(C)O)C1Cc2cc3cc(OC4CC(OC5CC(O)C(O)C(C)O5)C(O)C(C)O4)c(C)c(O)c3c(O)c2C(=O)C1OC1CC(OC2CC(OC3CC(C)(O)C(O)C(C)O3)C(O)C(C)O2)C(O)C(C)O1` (stereo not shown) [MTM (39)], the “PC:TC32 (cellular selectivity)” value in assay [1] stood at 7.4.

These data come from patent US12486300B2, “Mithramycin oxime derivatives having increased selectivity and anti-cancer activity” (University of Kentucky Research Foundation, priority 2018, dated 2025).
